According to article PMC11088696, “An integrated multi-omics approach reveals polymethoxylated flavonoid biosynthesis in Citrus reticulata cv. Chachiensis” (Nature Communications, 2024):

Tests used:
[1] = test system: T1, CcOMT1; test: HPLC of methylated product, Michaelis-Menten non-linear fit; format: biochemical, Citrus reticulata; conditions: 5 mM SAM, pH 6.0 phosphate, 50 °C, 2 h, 1 mM DTT
T1 construct: full-length cDNA from CRC leaf cDNA library, BamHI/XhoI in pET-28a(+), E. coli BL21(DE3), Ni-NTA purified; ORF printed 1080 bp but 366 aa printed (inconsistent); primers encode N-terminus MGSTSSE, C-terminus MEFLKSA
Protocol: HPLC of methylated product, Michaelis-Menten non-linear fit on CcOMT1 | To determine the kinetic parameters of CcOMT1, the Michaelis–Menten constant (Km) was determined

[2] = test system: T1, CcOMT1; test: as above; format: biochemical, Citrus reticulata; conditions: 5 mM SAM, pH 6.0 phosphate, 50 °C, 2 h, 1 mM DTT; remark: listed apart in the source
Excerpt: HPLC of methylated product, Michaelis-Menten non-linear fit on CcOMT1 | For kinetic studies of CcOMT1 and its variant CcOMT1-W141Y toward natsudaidain

## COc1ccc(-c2oc3c(OC)c(OC)c(OC)c(OC)c3c(=O)c2O)cc1OC [compound 1, natsudaidain]
[1]
  Km: 25.4 ± 11.3 µM
[2]
  Km: 20.8 ± 7.6 µM
